According to ChEMBL document CHEMBL4813985, “Lead optimization generates selenium-containing miconazole CYP51 inhibitors with improved pharmacological profile for the treatment of fungal infections” (Eur J Med Chem, 2021):
≈ marks a conversion by molar mass, not a printed value.

How the values were obtained:
Assay type in all cases: functional
Candida albicans [1] = assay: Antifungal activity against fluconazole-resistant Candida albicans 901 assessed as inhibition of microbial growth after 24 hrs by broth microdilution method
Candida albicans [2] = assay: Antifungal activity against Candida albicans ATCC SC5314 measured after 24 hrs by broth microdilution assay
Candida parapsilosis = assay: Antifungal activity against Candida parapsilosis ATCC 22019 measured after 24 hrs by broth microdilution assay; conditions: Lodderomyces parapsilosis
Candida albicans [3] = assay: Potency index, ratio of fluconazole MIC to test compound MIC for Candida albicans CPCC400616 measured after 24 hrs by broth microdilution assay
Candida albicans [4] = assay: Antifungal activity against fluconazole-resistant Candida albicans 904 assessed as inhibition of microbial growth after 24 hrs by broth microdilution method
Aspergillus fumigatus = assay: Antifungal activity against Aspergillus fumigatus CMGCC3.7795 measured after 72 hrs by broth microdilution assay
Candida albicans [5] = assay: Antifungal activity against fluconazole-resistant Candida albicans CaR assessed as inhibition of microbial growth after 24 hrs by broth microdilution method
Candida albicans [6] = assay: Antifungal activity against fluconazole-resistant Candida albicans 17# assessed as inhibition of microbial growth after 24 hrs by broth microdilution method
Nakaseomyces glabratus = assay: Antifungal activity against Candida glabrata measured after 24 hrs by broth microdilution assay
Pichia kudriavzevii = assay: Antifungal activity against Candida krusei AS2.1045 measured after 24 hrs by broth microdilution assay
[Candida] zeylanoides = Antifungal activity against Candida zeylanoides CMGCC2.3739 measured after 24 hrs by broth microdilution assay; conditions: Dujonia zeylanoides
Candida albicans [7] = assay: Antifungal activity against Candida albicans CPCC400616 measured after 24 hrs by broth microdilution assay
Cryptococcus neoformans = assay: Antifungal activity against Cryptococcus neoformans CMGCC2.3161 measured after 72 hrs by broth microdilution assay
Candida albicans [8] = assay: Antifungal activity against fluconazole-resistant Candida albicans 632 assessed as inhibition of microbial growth after 24 hrs by broth microdilution method

Structure (SMILES)	MIC (Candida albicans [1])	MIC (Candida albicans [2])	MIC (Candida parapsilosis)	Ratio (Candida albicans [3])	MIC (Candida albicans [4])	MIC (Aspergillus fumigatus)	MIC (Candida albicans [5])	MIC (Candida albicans [6])	MIC (Nakaseomyces glabratus)	MIC (Pichia kudriavzevii)	MIC ([Candida] zeylanoides)	MIC (Candida albicans [7])	MIC (Cryptococcus neoformans)	MIC (Candida albicans [8])
Cc1ccc([Se]C(Cn2ccnc2)c2ccc(F)cc2F)cc1 (stereo not given)	8 µg/mL	0.03 µg/mL (≈ 0.0795 µM)	0.25 µg/mL (≈ 0.663 µM)	8	4 µg/mL	8 µg/mL (≈ 21.2 µM)	2 µg/mL	16 µg/mL	0.5 µg/mL (≈ 1.33 µM)	0.13 µg/mL (≈ 0.345 µM)	0.5 µg/mL (≈ 1.33 µM)	0.5 µg/mL (≈ 1.33 µM)	0.13 µg/mL (≈ 0.345 µM)	1 µg/mL
Cc1cccc(C)c1[Se]C(Cn1ccnc1)c1ccc(Cl)cc1Cl (stereo not given)	16 µg/mL	0.06 µg/mL (≈ 0.141 µM)	0.5 µg/mL (≈ 1.18 µM)	8	8 µg/mL	8 µg/mL (≈ 18.9 µM)	4 µg/mL	4 µg/mL	0.13 µg/mL (≈ 0.306 µM)	2 µg/mL (≈ 4.71 µM)	4 µg/mL (≈ 9.43 µM)	0.13 µg/mL (≈ 0.306 µM)	0.5 µg/mL (≈ 1.18 µM)	8 µg/mL
Fc1ccc(C(Cn2ccnc2)[Se]c2ccccc2)c(F)c1 (stereo not given)	2 µg/mL	0.02 µg/mL (≈ 0.0551 µM)	0.06 µg/mL (≈ 0.165 µM)	8	1 µg/mL	2 µg/mL (≈ 5.51 µM)	1 µg/mL	4 µg/mL	1 µg/mL (≈ 2.75 µM)	0.25 µg/mL (≈ 0.688 µM)	0.25 µg/mL (≈ 0.688 µM)	0.5 µg/mL (≈ 1.38 µM)	0.5 µg/mL (≈ 1.38 µM)	2 µg/mL
COc1ccc([Se]C(Cn2ccnc2)c2ccc(F)cc2F)cc1 (stereo not given)	2 µg/mL	0.03 µg/mL (≈ 0.0763 µM)	0.25 µg/mL (≈ 0.636 µM)	8	8 µg/mL	8 µg/mL (≈ 20.3 µM)	2 µg/mL	16 µg/mL	0.5 µg/mL (≈ 1.27 µM)	0.5 µg/mL (≈ 1.27 µM)	0.25 µg/mL (≈ 0.636 µM)	1 µg/mL (≈ 2.54 µM)	0.5 µg/mL (≈ 1.27 µM)	16 µg/mL
Cc1cccc([Se]C(Cn2ccnc2)c2ccc(Cl)cc2Cl)c1 (stereo not given)	1 µg/mL	0.03 µg/mL (≈ 0.0731 µM)	0.25 µg/mL (≈ 0.609 µM)	8	1 µg/mL	4 µg/mL (≈ 9.75 µM)	1 µg/mL	1 µg/mL	1 µg/mL (≈ 2.44 µM)	0.06 µg/mL (≈ 0.146 µM)	0.25 µg/mL (≈ 0.609 µM)	0.25 µg/mL (≈ 0.609 µM)	0.25 µg/mL (≈ 0.609 µM)	1 µg/mL
Cc1ccc([Se]C(Cn2ccnc2)c2ccc(Cl)cc2Cl)cc1 (stereo not given)	8 µg/mL	0.03 µg/mL (≈ 0.0731 µM)	0.5 µg/mL (≈ 1.22 µM)	8	16 µg/mL	8 µg/mL (≈ 19.5 µM)	32 µg/mL	4 µg/mL	0.25 µg/mL (≈ 0.609 µM)	0.5 µg/mL (≈ 1.22 µM)	0.25 µg/mL (≈ 0.609 µM)	0.25 µg/mL (≈ 0.609 µM)	0.13 µg/mL (≈ 0.317 µM)	4 µg/mL
Fc1ccc([Se]C(Cn2ccnc2)c2ccc(Cl)cc2Cl)cc1 (stereo not given)	1 µg/mL	0.03 µg/mL (≈ 0.0724 µM)	0.25 µg/mL (≈ 0.604 µM)	8	1 µg/mL	8 µg/mL (≈ 19.3 µM)	8 µg/mL	2 µg/mL	0.5 µg/mL (≈ 1.21 µM)	0.02 µg/mL (≈ 0.0483 µM)	0.25 µg/mL (≈ 0.604 µM)	0.25 µg/mL (≈ 0.604 µM)	0.03 µg/mL (≈ 0.0724 µM)	1 µg/mL
Cc1ccccc1[Se]C(Cn1ccnc1)c1ccc(F)cc1F (stereo not given)	2 µg/mL	0.02 µg/mL (≈ 0.053 µM)	0.13 µg/mL (≈ 0.345 µM)	8	1 µg/mL	8 µg/mL (≈ 21.2 µM)	8 µg/mL	4 µg/mL	1 µg/mL (≈ 2.65 µM)	0.02 µg/mL (≈ 0.053 µM)	0.5 µg/mL (≈ 1.33 µM)	0.13 µg/mL (≈ 0.345 µM)	0.5 µg/mL (≈ 1.33 µM)	4 µg/mL
COc1ccccc1[Se]C(Cn1ccnc1)c1ccc(Cl)cc1Cl (stereo not given)	1 µg/mL	0.03 µg/mL (≈ 0.0704 µM)	0.13 µg/mL (≈ 0.305 µM)	8	8 µg/mL	8 µg/mL (≈ 18.8 µM)	2 µg/mL	2 µg/mL	0.5 µg/mL (≈ 1.17 µM)	0.13 µg/mL (≈ 0.305 µM)	0.25 µg/mL (≈ 0.587 µM)	0.06 µg/mL (≈ 0.141 µM)	0.5 µg/mL (≈ 1.17 µM)	2 µg/mL
Fc1cccc([Se]C(Cn2ccnc2)c2ccc(F)cc2F)c1 (stereo not given)	2 µg/mL	0.03 µg/mL (≈ 0.0787 µM)	0.25 µg/mL (≈ 0.656 µM)	8	2 µg/mL	8 µg/mL (≈ 21 µM)	4 µg/mL	4 µg/mL	1 µg/mL (≈ 2.62 µM)	0.13 µg/mL (≈ 0.341 µM)	0.5 µg/mL (≈ 1.31 µM)	0.5 µg/mL (≈ 1.31 µM)	0.5 µg/mL (≈ 1.31 µM)	1 µg/mL
